# Earlier results, collected in US6855805B2 (priority 1999, dated 2005).
# System: neuromuscular block
# Settings: dose mg/kg: Sux 1.0, Org 9847 1.5, Rocuronium 0.6, Mivacurium 0.2, Vecuronium 0.1, Cisatracurium 0.1
SMILES,Onset Time,Recovery 25%,Recovery 75%
COc1ccc(C[C@@H]2c3cc(OC)c(OC)cc3CC[N@+]2(C)CCC(=O)OCCCCCOC(=O)CC[N@@+]2(C)CCc3cc(OC)c(OC)cc3[C@H]2Cc2ccc(OC)c(OC)c2)cc1OC [Cisatracurium],120 to 180 s,45 min,60 to 70 min
COc1cc2c(cc1OC)[C@@H](Cc1cc(OC)c(OC)c(OC)c1)[N+](C)(CCCOC(=O)CC/C=C/CCC(=O)OCCC[N+]1(C)CCc3cc(OC)c(OC)cc3[C@H]1Cc1cc(OC)c(OC)c(OC)c1)CC2 (stereo partly drawn) [Mivacurium],150 s,20 min,27 min
C=CC[N+]1([C@H]2C[C@H]3[C@@H]4CC[C@H]5C[C@H](O)[C@@H](N6CCOCC6)C[C@]5(C)[C@H]4CC[C@]3(C)[C@H]2OC(C)=O)CCCC1 [Rocuronium],80 s,40 min,60 min
"C[N+](C)(C)CCOC(=O)CCC(=O)OCC[N+](C)(C)C [Sux, succinylcholine chloride]",60 s,5 to 7 min,10 min
CC(=O)O[C@H]1C[C@@H]2CC[C@@H]3[C@H](CC[C@@]4(C)[C@H]3C[C@H]([N+]3(C)CCCCC3)[C@@H]4OC(C)=O)[C@@]2(C)C[C@@H]1N1CCCCC1 [Vecuronium],120 to 180 s,40 min,60 min
